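In this assay, cells in 96-well plates receive the compound at five concentrations for 48 hours. Endpoints are linearly interpolated between the surrounding concentrations. Abbreviation: GI50, concentration required for 50% inhibition of growth.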 The source made the active and inactive calls. No stated cut-off is given here; in the data, active = GI50 up to about 1.1 µM and inactive = higher.
Tests used:
Test in all cases: NCI tumour cell line growth inhibition, 48 h
786-0 = test system: 786-0
A549 = test system: A549
ACHN = test system: ACHN
CAKI-1 = test system: CAKI-1
CCRF-CEM = test system: CCRF-CEM
COLO 205 = test system: COLO 205
DLD-1 = test system: DLD-1
DMS-114 = test system: DMS-114
DMS-273 = test system: DMS-273
EKVX = test system: EKVX
HCC 2998 = test system: HCC 2998
HCT-116 = test system: HCT-116
HCT-15 = test system: HCT-15
HL-60 = test system: HL-60
HOP-18 = test system: HOP-18
HOP-62 = test system: HOP-62
HOP-92 = test system: HOP-92
HT-29 = test system: HT-29
IGROV-1 = test system: IGROV-1
K562 = test system: K562
KM-20L2 = test system: KM-20L2
KM12 = test system: KM12
LOX IMVI = test system: LOX IMVI
LXFL 529 = test system: LXFL 529
M14 = test system: M14
M19-MEL = test system: M19-MEL
MOLT-4 = test system: MOLT-4
Malme-3M = test system: Malme-3M
NCI-H226 = test system: NCI-H226
NCI-H23 = test system: NCI-H23
NCI-H460 = test system: NCI-H460
NCI-H522 = test system: NCI-H522
OVCAR-3 = test system: OVCAR-3
OVCAR-4 = test system: OVCAR-4
OVCAR-5 = test system: OVCAR-5
OVCAR-8 = test system: OVCAR-8
RPMI-8226 = test system: RPMI-8226
SF-268 = test system: SF-268
SF-295 = test system: SF-295
SF-539 = test system: SF-539
SK-MEL-28 = test system: SK-MEL-28
SK-MEL-2 = test system: SK-MEL-2
SK-MEL-5 = test system: SK-MEL-5
SK-OV-3 = test system: SK-OV-3
SN12C = test system: SN12C
SNB-19 = test system: SNB-19
SNB-75 = test system: SNB-75
SNB-78 = test system: SNB-78
SR = test system: SR
SW-620 = test system: SW-620
TK-10 = test system: TK-10
U-251 = test system: U-251
UACC-257 = test system: UACC-257
UACC-62 = test system: UACC-62
UO-31 = test system: UO-31
A498 = test system: A498
RXF 393 = test system: RXF 393

Measured: GI50

COc1ccc(-c2cn3ccsc3n2)cc1
inactive: 786-0 35.6 µM | A549 > 100 µM | ACHN > 100 µM | CAKI-1 > 100 µM | CCRF-CEM 64 µM | COLO 205 33.1 µM | DLD-1 > 100 µM | DMS-114 47.8 µM | DMS-273 > 100 µM | EKVX > 100 µM | HCC 2998 > 100 µM | HCT-116 45.4 µM | HL-60 24.7 µM | HOP-18 > 100 µM | HOP-62 > 100 µM | HOP-92 > 100 µM | HT-29 82.8 µM | IGROV-1 > 100 µM | K562 55.2 µM | KM-20L2 57.8 µM | KM12 > 100 µM | LOX IMVI 36.2 µM | LXFL 529 > 100 µM | M14 > 100 µM | M19-MEL > 100 µM | MOLT-4 97.7 µM | Malme-3M > 100 µM | NCI-H226 > 100 µM | NCI-H23 > 100 µM | NCI-H460 87.7 µM | NCI-H522 65.3 µM | OVCAR-3 > 100 µM | OVCAR-4 > 100 µM | OVCAR-5 > 100 µM | OVCAR-8 > 100 µM | RPMI-8226 22.3 µM | SF-268 > 100 µM | SF-295 > 100 µM | SF-539 75.9 µM | SK-MEL-28 > 100 µM | SK-MEL-2 > 100 µM | SK-MEL-5 > 100 µM | SK-OV-3 > 100 µM | SN12C > 100 µM | SNB-19 > 100 µM | SNB-75 > 100 µM | SNB-78 > 100 µM | SR 15.9 µM | SW-620 11.2 µM | TK-10 > 100 µM | U-251 75.2 µM | UACC-257 > 100 µM | UACC-62 > 100 µM | UO-31 > 100 µM
39.6 µM: HCT-15

Cn1cc2ccccc2c1-c1nc(F)nc(Oc2ccc3c(c2)CC[C@@H]2C3CC[C@@]3(C)C2CC[C@@H]3O)n1 (stereo not given in full)
6.18 µM: HCT-15
inactive: 786-0 8.91 µM | A498 20.5 µM | A549 24.8 µM | ACHN 17.7 µM | CAKI-1 11.6 µM | CCRF-CEM 3.08 µM | COLO 205 21.8 µM | DLD-1 7.16 µM | DMS-114 3.66 µM | DMS-273 11.6 µM | EKVX 15.6 µM | HCC 2998 18.3 µM | HCT-116 11.7 µM | HL-60 3.81 µM | HOP-18 18.2 µM | HOP-62 9.59 µM | HOP-92 7.78 µM | HT-29 18.7 µM | IGROV-1 6.78 µM | K562 4.73 µM | KM-20L2 19.1 µM | KM12 11.4 µM | LOX IMVI 5.79 µM | LXFL 529 3.71 µM | M14 8.71 µM | M19-MEL 7.98 µM | MOLT-4 4.07 µM | Malme-3M 15.5 µM | NCI-H226 13.5 µM | NCI-H23 10.3 µM | NCI-H460 18.6 µM | NCI-H522 3.4 µM | OVCAR-3 9.33 µM | OVCAR-4 7.43 µM | OVCAR-5 18.6 µM | OVCAR-8 7.45 µM | RPMI-8226 5.94 µM | RXF 393 3.08 µM | SF-268 9.53 µM | SF-295 22.6 µM | SF-539 12.8 µM | SK-MEL-28 10.4 µM | SK-MEL-2 4.2 µM | SK-MEL-5 12.8 µM | SK-OV-3 19.3 µM | SN12C 7.87 µM | SNB-19 16.6 µM | SNB-75 16.7 µM | SNB-78 22.3 µM | SR 3.36 µM | SW-620 7.35 µM | TK-10 13.7 µM | U-251 6.73 µM | UACC-257 21.3 µM | UACC-62 17.1 µM | UO-31 24.4 µM

C=CCN(C)CN(C)c1nc(N(C)C)nc(N(C)C)n1
inactive: 786-0 43.9 µM | A498 > 100 µM | A549 > 100 µM | ACHN > 100 µM | CAKI-1 > 100 µM | CCRF-CEM 33 µM | COLO 205 86.3 µM | DLD-1 49.4 µM | DMS-114 19.7 µM | DMS-273 22.3 µM | EKVX > 100 µM | HCC 2998 53.2 µM | HCT-116 60.7 µM | HL-60 21.1 µM | HOP-18 > 100 µM | HOP-62 > 100 µM | HOP-92 > 100 µM | HT-29 > 100 µM | IGROV-1 > 100 µM | K562 > 100 µM | KM-20L2 > 100 µM | KM12 > 100 µM | LOX IMVI 54 µM | LXFL 529 26.1 µM | M14 50.7 µM | M19-MEL > 100 µM | MOLT-4 > 100 µM | Malme-3M > 100 µM | NCI-H23 > 100 µM | NCI-H460 11.8 µM | NCI-H522 11.2 µM | OVCAR-3 64.6 µM | OVCAR-4 79.8 µM | OVCAR-5 > 100 µM | OVCAR-8 > 100 µM | RPMI-8226 46.6 µM | SF-268 > 100 µM | SF-295 > 100 µM | SF-539 > 100 µM | SK-MEL-28 > 100 µM | SK-MEL-2 > 100 µM | SK-MEL-5 > 100 µM | SK-OV-3 > 100 µM | SN12C > 100 µM | SNB-19 > 100 µM | SNB-75 44.1 µM | SNB-78 > 100 µM | SR 49.2 µM | SW-620 36.3 µM | TK-10 > 100 µM | U-251 > 100 µM | UACC-257 > 100 µM | UACC-62 > 100 µM | UO-31 > 100 µM
34.3 µM: HCT-15

COc1ccc(CN2CCC/C=C/CC(Cl)(Cl)C2=O)cc1
34.2 µM: HCT-15
inactive: 786-0 35.8 µM | A498 19.2 µM | A549 35 µM | ACHN 21 µM | CAKI-1 38.4 µM | CCRF-CEM 35.5 µM | COLO 205 20.4 µM | DLD-1 31.6 µM | DMS-114 24.7 µM | DMS-273 38.8 µM | HCC 2998 35.3 µM | HCT-116 31.3 µM | HL-60 28.2 µM | HOP-18 56.6 µM | HOP-62 50.9 µM | HOP-92 14.5 µM | HT-29 35.8 µM | IGROV-1 38.4 µM | K562 35.6 µM | KM-20L2 49.4 µM | KM12 36.6 µM | LOX IMVI 39.3 µM | LXFL 529 31.4 µM | M14 20.1 µM | M19-MEL 29.2 µM | MOLT-4 22.8 µM | Malme-3M 23.8 µM | NCI-H23 27.2 µM | NCI-H460 29.4 µM | NCI-H522 19.8 µM | OVCAR-3 34.8 µM | OVCAR-4 23 µM | OVCAR-5 42.7 µM | OVCAR-8 40 µM | RPMI-8226 24.3 µM | RXF 393 17 µM | SF-268 26.6 µM | SF-295 20.5 µM | SF-539 33.6 µM | SK-MEL-28 46.7 µM | SK-MEL-2 19.8 µM | SK-MEL-5 18 µM | SK-OV-3 27.9 µM | SN12C 37.9 µM | SNB-19 25.2 µM | SNB-75 15.1 µM | SR 24.1 µM | SW-620 49.4 µM | TK-10 29.7 µM | U-251 34.1 µM | UACC-62 43 µM | UO-31 21.2 µM

Reference: ChEMBL document CHEMBL1201862, “PubChem BioAssay data set” (2004)
